Consider 5 compounds from article PMC6315057, “Industrial scale high-throughput screening delivers multiple fast acting macrofilaricides” (Nature Communications, 2019).

In general, solubility refers to how much of the substance goes into solution per volume. The EC50 is the midpoint of the concentration-response curve. As a reminder, the microsomal CLint is a measure of how fast metabolising enzymes remove a compound, apart from limits set by blood flow. Read a high microsomal CLint as faster metabolism. For orientation: fraction unbound means the share of the substance not bound to proteins or other matrix.

Structures are written as SMILES. In brackets after ≈: the same amount, converted by molar mass.

Data set [1] can be described thus: Aqueous solubility in pH 7.4 PBS. In kind it is physicochemical. The note with it: for solubility: PBS pH 7.4, aqueous buffer, pH 7.4 PBS, read-out: Aqueous solubility in pH7.4 PBS. From the text: (§1) The DMPK data used for triaging compounds, including LogD7.4, aqueous solubility, plasma protein binding, microsome and hepatocyte clearance measurements, were generated using the standard AstraZeneca UK high-throughput platform[37],[38].

For data set [2], the system named is Wolbachia in C6/36 (wAlbB) cells. Briefly: Confirmatory re-assessment in the insect cell screen (cell assay EC50). The note with it: for EC50: Wolbachia, C6/36, insect cell screen, re-sourced or re-synthesised samples. The class given is cell-based, Wolbachia pipientis wAlbB (in Aedes albopictus C6/36 cells). The source says:
To further validate the hit molecules from these 9 clusters, samples were sourced either from the AstraZeneca compound inventory or through re-synthesis. All 18 samples were characterised by nuclear magnetic resonance (NMR) and mass spectroscopy to confirm their chemical structures and by HPLC/LCMS to establish their purity (Supplementary Table 5 and Supplementary Data 1). These samples were also subject to confirmatory re-assessment in both the insect cell screen and Mf assays for anti-Wolbachia potency alongside confirmation of DMPK properties (LogD7.4, aqueous solubility in pH 7.4 PBS, human microsomal turnover, rat hepatocyte turnover and human plasma protein binding) (Fig. 4, Supplementary Figure 1 and Supplementary Table 4).
On day 0, a single cryovial was recovered and the cells washed before being transferred to a T225 cm^2 flask. After a 7-day recovery Wolbachia infection level (quality control (QC)) was checked by SYTO®11 DNA staining of both the host cell nuclei and intracellular Wolbachia. The end-point read out from the Operetta® high content imaging system (Perkin Elmer) was the percentage of cells infected with Wolbachia. This was obtained from cytoplasm texture analysis by the associated Harmony® software. Cells with a >50% of the population infected with Wolbachia were classed as having a good Wolbachia level and therefore used for screening through addition of 2000 cells per well into assay ready 384-well plates containing the test compounds. […] Each plate included on-board controls; vehicle/DMSO (total/maximum Wolbachia signal) or doxycycline 5 µM (null/minimum Wolbachia signal), resulting in single shot screening of 352 compounds per plate for the primary screen. […] QC plates were also created including full columns of the following controls; DMSO (total/max), 5 μM doxycycline (null/min), as well as 50 nM doxycycline (reference/medium Wolbachia signal). Daily batches contained ~150 compound plates in addition to the QC plates. Each compound plate was foil sealed before incubation for 7 days at 26 °C, 95% humidity and atmospheric air.

Data set [3] is described as follows: Rat hepatocyte clearance. In kind it is in vitro ADME.
Excerpt: as §1

Data set [4] in a line: Human microsome clearance. The class given is in vitro ADME. The note with it: for microsomal CLint: human, human microsomes.
Excerpt: as §1

The subject of data set [5] is Wolbachia within Brugia malayi Mf. Briefly: Anti-Wolbachia time-kill analysis (timed wash-out) in B. malayi Mf. The class given is cell-based. The note with it: 10x EC50, 1 day exposure, wash, 6-day read out, normalised to vehicle control. The source says: To compare the dynamics of the in vitro phenotype of our hits with existing anti-Wolbachia therapies, we employed a timed wash-out strategy (Fig. 5) at 10x EC50 to establish the anti-Wolbachia time-kill kinetics of the selected chemotypes (1A–5A), using five replicates per compound. […].
Fig. 5 Anti-Wolbachia time-kill analysis. Representatives from the top five clusters (1A–5A), as well as established anti-Wolbachia antibacterials (doxycycline (white), minocycline (grey), rifampicin (black)) were assessed after exposure for 1 day and 2 days before washing and further incubation until the standard 6-day read out. wsp:gst ratio was normalised to the DMSO vehicle control resulting in a read out of mean percentage reduction from control. Doxycycline day 6 treatment represents the result for exposure to doxycycline at 5 µM for a full 6 days (no wash). The box extends from the 25th to the 75th percentile with the median presented by the central line. The whiskers are set at the minimum and maximum therefore indicating the range from five replicates. The cluster number is indicated by colour: cluster 1 (dark blue), 2 (magenta), 3 (teal), 4 (dark gold), and 5 (light blue)
The Mf were obtained by peritoneal lavage, using a catheter, of gerbils (Meriones unguiculatus) harbouring a patent infection of B. malayi. Mf were purified using a PD-10 desalting column (Fisher), centrifuged (311 RCF for 5 min at room temperature) before the addition of 8000 Mf/well of a 96-well plate (100 µl per well) in complete media consisting of RPMI supplemented with 10% FBS, 1% penicillin streptomycin and 1% amphotericin B. Compounds were diluted in complete media and 100 µl was added per well, providing a final concentration of 5 µM, with five replicates per compound. Each plate contained doxycycline (5 µM) and DMSO controls. After incubation at 37 °C for 6 days in 5% CO2, visual assessment of Mf motility was performed and scored from 0 to 4 per well (where 0 = no movement and 4 = highly motile). DNA extraction per sample was performed using the QIAmp DNA Mini Kit before quantitative PCR was performed to obtain the ratio of Wolbachia Surface Protein gene copy number (wsp) to Glutathione S-Transferase gene copy number (gst)[36]. The DNA was amplified using the primers as indicated in Supplementary Table 6.
The wsp:gst ratio data allowed for normalisation of the Wolbachia level to the Mf biomass for each well. The change in wsp:gst for each compound compared to the DMSO control was calculated before normalisation to the onboard doxycycline control to allow for inter-assay comparison.

The nature of data set [6]: Human plasma protein binding. The note with it: plasma. The class given is in vitro ADME.
Excerpt: as §1

Turning to `Cc1nccc(N2CCC(C(=O)N(C)CCN(C)S(=O)(=O)c3ccc(Br)cc3)CC2)n1` [1A, N-(2-((4-bromo-N-methylphenyl)sulfonamido)ethyl)-N-methyl-1-(2-methylpyrimidin-4-yl)piperidine-4-carboxamide], the solubility in data set [1] stood at 663 µM (≈ 338 µg/mL). In data set [2], this compound gave an EC50 of 192 nM. Moreover, the “Rat hepatocytes CLint” value in data set [3] amounted to 31.1 µl/min/1x106 cells. The compound also gave a microsomal CLint in data set [4] of 211 µL/min/mg. Besides, the “Wolbachia reduction after a single day of exposure” value (“Wolbachia reduction” for short) in data set [5] is 57–67%. Moreover, in data set [6], the fraction unbound was 0.24.

`CCc1ccc(CN2CCCC2c2nc(C(=O)N(C)C)cs2)s1` (centres unmarked) [4A, 2-(1-((5-ethylthiophen-2-yl)methyl)pyrrolidin-2-yl)-N,N-dimethylthiazole-4-carboxamide]: in data set [1], the “Solubility (in words)” value was “excellent” and the solubility was more than 1000 µM. Besides, in data set [2], the “Insect cell screen activity (in words)” value was “strong” and a half-maximal response (EC50) required 41 nM. The “Rat hepatocytes CLint” value in data set [3] is listed as more than 300 µl/min/1x106 cells. Besides, in data set [4], the “Human microsomal stability (in words)” value was “poor” and the microsomal CLint is 92 µL/min/mg. In data set [5], the “Wolbachia reduction” value was 57–67%. This compound gave an unbound share (fraction unbound) in data set [6] of 0.078.

Regarding `CC1COCCN1c1cc(OCc2ccccc2)nc(-c2nccn2C)n1` (centres unmarked) [3A, 4-(6-(benzyloxy)-2-(1-methyl-1H-imidazol-2-yl)pyrimidin-4-yl)-3-methylmorpholine], in data set [1], the solubility was determined as 538 µM (≈ 197 µg/mL). In addition, the EC50 in data set [2] was 662 nM. The “Rat hepatocytes CLint” value in data set [3] came out at 147.0 µl/min/1x106 cells. This compound gave an intrinsic clearance (microsomal CLint) in data set [4] of 59.7 µL/min/mg. Moreover, the “Wolbachia reduction” value in data set [5] was found to be 42%. The same compound showed a free fraction (fraction unbound) in data set [6] of 0.042.

`COc1ccc(CC(=O)Nc2[nH]nc(C)c2-c2ccccc2)c(Cl)c1` [2A, 2-(2-chloro-4-methoxyphenyl)-N-(3-methyl-4-phenyl-1H-pyrazol-5-yl)acetamide]: the solubility in data set [1] is 71 µM (≈ 25.3 µg/mL). Besides, the midpoint of the response in data set [2], the EC50, lay at 242 nM. In addition, the “Rat hepatocytes CLint” value in data set [3] is 262.8 µl/min/1x106 cells. The compound also returned a microsomal CLint in data set [4] of 41.2 µL/min/mg. Also, the “Wolbachia reduction” value in data set [5] is given as 57–67%. For the same compound, in data set [6], the fraction unbound was 0.021.

Turning to `Cc1nc(C(=O)NC(C)c2ccc(F)cc2)c(NC(=O)Cc2ccccc2)[nH]1` (centres unmarked) [5A, N-(1-(4-fluorophenyl)ethyl)-2-methyl-5-(2-phenylacetamido)-1H-imidazole-4-carboxamide], in data set [1], the “Solubility (in words)” value is “lower” and the solubility is 12 µM (≈ 4.57 µg/mL). The same compound had an EC50 in data set [2] of 296 nM. In addition, the “Rat hepatocytes CLint” value in data set [3] worked out at 8.0 µl/min/1x106 cells. In addition, in data set [4], the microsomal CLint was found to be 39.5 µL/min/mg. Also, in data set [4] (in vitro, system not given), the “Metabolic stability (in words)” value is listed as “moderate”. Besides, the “Wolbachia reduction” value in data set [5] is recorded as 57–67%. Further, the fraction unbound in data set [6] is 0.073.
